In publication PMC11013143, “4-Chloroisocoumarins as Chlamydial Protease Inhibitors and Anti-Chlamydial Agents” (Molecules, 2024):
Like-named read-outs stand apart in the source and are kept apart here.

Key:
[1] = MTS cell viability assay, HEp-2 cells; format: cell-based, human; settings: human, HEp-2 cells, 125 µM, read-out: HEp-2 cell viability, % of DMSO-treated control cells
Protocol: (§1) The cytotoxic effects of the 4-chloroisocoumarin compounds 2a–g and 6a–h (24 h) were tested against HEp-2 and McCoy B cells using the MTS cell viability assay. HEp-2 and McCoy B cells were selected, as these are routinely used for the cultivation of chlamydial species, and low cytotoxicity against host cells is required to evaluate the anti-chlamydial properties of a test compound [27].
(§2) HEp-2 (human epithelial type 2, CCL-23, ATCC®, Virginia, USA) or McCoy B (mouse fibroblast, CRL-1696, ATCC®) cells were grown to 80–100% confluence, and cell density was determined with a haemocytometer. Cells were then diluted to 1 × 10^5 cells/mL, and 100 µL was added to each well in a 96-well plate, with 3 wells left as controls. Cells were grown for 24 h, and the media was removed and then replaced with fresh media containing 0.1% DMSO and the drug for testing in triplicate. Drugs and cells were incubated for 24 h, and then 20 µL of MTS and PMS solution was added and then incubated for a further four hours. Absorbance was measured at 490 nm on a TECAN M200 Infinite plate reader and data were processed using Microsoft Excel^TM with the following equation to determine cell viability relative to DMSO controls. Cellviability%=AbsorbanceDrug−AbsorbanceDye/AbsorbanceDMSO−AbsorbanceDye

HEp-2 cells = assay: MTS cell viability assay, HEp-2 cells; format: cell-based, human; settings: 62.5 and 31.25 µM, 24 h
Protocol: as §1, §2

CtHtrA [2] = target: T1, CtHtrA (Chlamydia trachomatis serovar D, UniProt P18584); assay: CtHtrA protease inhibition assay; format: biochemical; settings: for Relative Selectivity: (relative CtHtrA potency)/(relative HLE potency); for IC50: IC50 against CtHtrA; for IC50 / Relative Potency against CtHtrA: control JO146; for Relative Potency against CtHtrA: [IC50 of control]/[IC50 test compound]
T1 construct: made in house; host or cells: E. coli BL21(DE3), pET22b
Protocol: The inhibitory activity of compounds 2a–g against CtHtrA was evaluated. […] As these compounds are reportedly covalent inhibitors of serine proteases, a true IC50 is unable to be calculated. Instead, the residual activity of the protease is monitored over time in response to a range of compound concentrations, and an IC50 value is interpolated from a dose–response curve (see Figures S2–S4 and Tables S1 and S2). This IC50 value is then compared to a positive control (JO146 was used for 2a–g, and 2g was used for 6a–h), giving the ‘relative potency’. This is the established method for assessing CtHtrA inhibitory potency. […] This effect may be due to depth restrictions within the S1 subpocket, as kinetic studies on the rates of protease inhibition in HLE were reduced by larger C-3 alkoxy substituents. Chain branching (iso-propyl and sec-butyl substituents) increased the activity, resulting in a 1.4-fold increase for 2e over 2b and a 2.8-fold improvement for 2g over 2c.
CtHtrA was expressed using an procedure adapted from the literature. Recombinant E. coli BL21(DE3) pET22b was grown in LB media containing 100 ug/mL ampicillin to an OD600 of 0.5-0.6 in 5 × 400 mL batches at 37 °C. Isopropyl β-D-1-thioglactopyranoside (1 M, 400 µL, 1 mM final concentration) was added to each flask and incubated at 30 °C with shaking at 150 rpm for an additional 2.5 h. The culture was centrifuged at 4000× g for 15 min at 4 °C, and the cell pellet was harvested and resuspended in lysis buffer (50 mM phosphate, 10 mM imidazole, 500 mM NaCl, 0.1% Triton X-100, 10% glycerol). Lysozyme was added to the suspended cells and was sonicated in 15 cycles of 15 s, with one minute between cycles while maintaining 4 °C, and then centrifuged at 8000× g for 20 min to remove any debris, retaining the supernatant for protein purification.
TALON® metal affinity resin (Takara cat no. 635652, 5 mL) was added to each lysate tube and washed sequentially with lysis buffer (2 × 45 mL) and stringency buffer (4 × 45 mL) and then eluted with elution buffer (2 × 5 mL), allowing incubations at 4 °C for 20 min per wash, and centrifuging at 2500× g and 4 °C between washes to pellet the resin. The eluates were dialyzed in Tris buffer (pH 7.0, 50 mM, 4 L) with magnesium chloride (20 mM) at 4 °C five times over 24 h, with a minimum of three hours per dialysis change. Protein expression and isolation were confirmed with SDS-PAGE Coomassie stained gel, which was examined for the band at the correct size, and a BCA assay to confirm purified protein concentration prior to use.
CtHtrA was added to 25 wells in a black 96-well plate (40–80 µL, 10 µL increments), to which Tris-HCl buffer (50 mM, pH 7.0 with 20 mM MgCl2) was added to bring the total volume to 90 µL for 10 wells and 85 µL for the remaining 15. JO146 (10 µM, 5 µL) was added to 5 wells and JO146 (1 µM, 5 µL) was added to another 5 wells, with DMSO (5 µL) being added to the remaining 5 as a control. The plate was incubated at 37 °C for 10 min before substrate (MCA-ENLHLPLPIIFK-DNP, 10 µL, 1 mg/mL, 50% isopropanol in buffer) was added and analyzed in a TECAN Infinite Pro M200 plate reader with an excitation wavelength of 340 nm and fluorescence measured at 405 nm with four reads per well at 60 s intervals. A minimum volume of CtHtrA granting a fluorescence change of 300 min^−1 was used for subsequent assay.
The determined appropriate volume of CtHtrA in buffer was added to a 96-well non-transparent black plate and diluted to 85 µL with buffer solution. Drug or control (5 µL) at a maximum of 20% DMSO/80% buffer was added to the appropriate well with DMSO controls, and the plate was incubated for 10 min to allow activation by the protein. MCA-ENLHLPLPIIFK-DNP (Mimotopes, Australia, 1 mg/mL, 10 µL) was added and immediately monitored on a TECAN M200 Infinite plate reader at 37 °C every 60 s for 30 min, using the same wavelengths as for the activity evaluation. […]

[3] = target: T2, Human Leukocyte Elastase (HLE) (Homo sapiens, UniProt P08246); assay: HLE protease inhibition assay; format: biochemical; settings: for Relative Potency against HLE: [IC50 of JO146]/[IC50 test compound]
T2 construct: purchased Athens Research and Technology 16-15-051200
T2 sequence (P08246 30-247 limits assumed): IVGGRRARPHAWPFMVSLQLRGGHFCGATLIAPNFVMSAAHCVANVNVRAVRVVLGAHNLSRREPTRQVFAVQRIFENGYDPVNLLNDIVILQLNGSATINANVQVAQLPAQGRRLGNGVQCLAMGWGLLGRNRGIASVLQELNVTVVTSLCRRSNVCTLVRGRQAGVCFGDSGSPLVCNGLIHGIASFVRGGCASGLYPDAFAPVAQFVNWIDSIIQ
Protocol: Elastase was purchased from Athens Research and Technology (Cat No. 16-15-051200). Elastase (100 µg) was dissolved in Tris buffer (100 mM Tris, 20 mM CaCl2, pH 8.1, 3.14 mL), giving a concentration of 1.117 µM, and 25 µL was added to each well containing the respective inhibitor. The plate was incubated at 37 °C for 15 min.
N-Suc-AAA-pNA (Sigma Aldrich, Bayswater, Australia, S4760, 100 µL, 1 mg/mL, […]) was added to each well, and the absorbance was monitored every six minutes at 405 nm. The rate of change of absorbance was used as a comparison to controls to determine the % inhibition of protein in Microsoft Excel^TM (v2402), and these values were exported to GraphPad Prism (v8.0.1) for IC50 calculation.

CtHtrA [4] = target: T1, CtHtrA; design: method as in PMID 23796320; settings: read-out: IC50 against CtHtrA; reversible covalent complex with CtHtrA; cited from earlier work

T1 sequence (P18584 17-497): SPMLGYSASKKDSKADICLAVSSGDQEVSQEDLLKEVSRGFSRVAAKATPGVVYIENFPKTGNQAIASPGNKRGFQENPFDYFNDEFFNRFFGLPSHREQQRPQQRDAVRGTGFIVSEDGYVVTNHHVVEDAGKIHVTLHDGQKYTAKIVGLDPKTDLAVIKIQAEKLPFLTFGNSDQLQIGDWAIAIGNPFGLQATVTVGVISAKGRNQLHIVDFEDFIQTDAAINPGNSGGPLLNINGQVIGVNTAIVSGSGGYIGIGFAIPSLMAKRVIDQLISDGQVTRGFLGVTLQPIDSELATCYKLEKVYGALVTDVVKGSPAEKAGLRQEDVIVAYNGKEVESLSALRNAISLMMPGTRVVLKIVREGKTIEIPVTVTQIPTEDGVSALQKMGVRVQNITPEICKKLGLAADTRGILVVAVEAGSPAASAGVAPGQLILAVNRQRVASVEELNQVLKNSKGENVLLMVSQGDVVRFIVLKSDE

Row | Structure (SMILES) | viability at 24 h, 125 µM [1] | effect on HEp-2 cell viability (HEp-2 cells) | Relative Selectivity (CtHtrA [2]) | IC50 (CtHtrA [2]; Table S2, Batch 1) | Relative Potency against CtHtrA (CtHtrA [2]) | IC50 ([3]; Table S1, variable slope four parameter fit, read-out: IC50 against HLE) | Relative Potency against HLE [3] | IC50 (CtHtrA [4]) | IC50 (CtHtrA [2]; Table S2, Batch 2) | IC50 [3]
1 | COc1oc(=O)c2ccccc2c1Cl [Compound 2a, 3-Methoxy-4-chloroisocoumarin] | 50% | did not produce significant effects | 113.0 | 30.6 µM | 2.33 | 39.5 µM | 0.0207 | – | – | –
2 | CC(C)[C@H](NC(=O)OC(C)(C)C)C(=O)N1CCCC1C(=O)N[C@@H](C(C)C)P(=O)(Oc1ccccc1)Oc1ccccc1 (some centres unmarked) [JO146, reference compound] | – | – | 1.00 | 71.5 µM | 1.00 | – | 1.00 | 12 µM | 60 µM | 0.817 µM
